Entries after “also recorded” stand apart in the source; their conditions may differ.
How the values were obtained:
RN22 cells = experiment: Survival assay in RN22 cells under CuSO4 oxidative stress (MTT); format: cell-based, rat; settings: for cell viability of RN22 (in words): 1-10-50 ng/ml and 1-10 μg/ml, CuSO4 stress; for best working concentration for RN22 cell viability: tested 1-10-50 ng/ml and 1-10 μg/ml; for viability at 0.05 µg/mL: 50 ng/ml
Experimental: The rat schwannome cell line RN22 was cultured in Dulbecco's modified Eagle's medium (DMEM) with 10% FBS and 1% penicillin/streptomycin. The cell culture was maintained in 5% CO2 at 37° C.
RN22 were plated into 24-wells plates at the concentration of 30.000 cells/well in medium without serum. After 24 h, the test compounds G79, G80, and G81 were added at different concentrations (1-10-50 ng/ml and 1-10 μg/ml) and NGF was used as positive control of survival. The cells were so incubated for 2 hrs. Oxidative stress was induced with copper sulphate (CuSO4) at the final concentration of 150 μg/ml. After over-night incubation cell viability was determined by reading the absorbance after adding MTT (Sigma Aldrich).

SH-SY5Y cells = experiment: Parkinson's disease in vitro model (MPTP stress, MTT); format: cell-based, human; settings: MPTP 100 μM, 24 hrs; pre-treated 3 hours; BDNF 20 ng/ml
Experimental: The human neuroblastoma cell line SH-SY5Y was maintained in culture with 50% Ham's F12 medium and 50% EMEM medium, supplemented with 10% FBS, […] L-glutamine and 1% penicillin/streptomycin. The cell culture was maintained in a humidified atmosphere of 95% air and CO2 at 37° C.
The SH-SY5Y cells after differentiation to neuronal phenotype with retinoic acid, were pre-treated for 3 hours with the test compounds at different concentrations (20 ng/ml, 100 ng/ml, 2 μg/ml, 20 μg/ml and 50 μg/ml) or BDNF (20 ng/ml) as a positive control. Then 1-methyl-4-phenyl-1,2,3,6-tetrahydropyridine (MPTP) (100 μM) was added and incubated for 24 hrs. The number of surviving cells was determined the day after by 3-(4,5-dimethylthiazol-2-yl)-2,5-diphenyltetrazolium bromide (MTT) assay.

ATF-2 = experiment: Luminex signalling assay in SH-SY5Y; format: cell-based, human; settings: G79 100 ng/ml and 20 μg/ml, BDNF 20 ng/ml; 30 min, 1 h, 2 h, 6 h
Source text: (§1) The human neuroblastoma cell line SH-SY5Y was used to perform Luminex signalling assays using the 10-Plex MAPK/SAPK Signaling Kit-Phosphoprotein (Millipore). This cell line expresses the TrkB receptor and the MAPK/SAPK signalling pathway is typically activated by the tyrosinkinase receptors. The phosphoprotein antibodies included into the kit are the following: ERK/MAP kinase (Thr185/Tyr187); STAT-1 (Tyr701); JNK (Thr183/Tyr185); MEK-1 (Ser212); ATF-2 (Thr69/71); p53 (Ser15); HSP27 (Ser78); c-Jun (Ser73); p38 (Thr180/Tyr182), p70 S6 kinase (Thr412); IkBα (Ser32) (purchased from Millipore).
(§2) The cells were propagated and then seeded into 24-well plates (30.000 cell/well). After 24 hours, the cells were treated with two different concentrations of NGF-receptor agonist G79: 100 ng/ml and 20 μg/ml. After adding G79 into the medium, the cells were collected in the lysis buffer of the kit at the following time points: 30 min, 1 h, 2 h, and 6 h. The assay was performed in this way to assess both time and dose effects comparing the treated samples with the untreated cells used as negative controls (unstimulated SH-SY5Y cells). BDNF was used as positive control at the concentration 20 ng/ml, which is the best working concentration known in literature. In the Luminex plate, each sample was added into a well in duplicate. After adding all the samples, the specific positive and negative controls of phosphorilation, included in the Luminex kit, were added. The assay buffer was also added in duplicate, as a background controls.
(§3) In the circles are the activated factors, while in the grey circles are the tested factors. Its effects of the SY-SY5Y cell line in the phosphorilation of several pathways were assessed using xMAP assay from Luminex. […] The levels of activation are expressed as Median Fluorescence Intensity (MFI).

HSP-27 = experiment: Luminex signalling assay in SH-SY5Y; format: cell-based, human; settings: G79 100 ng/ml and 20 μg/ml, BDNF 20 ng/ml; 30 min, 1 h, 2 h, 6 h
Source text: as §1, §2, §3

JNK = experiment: Luminex signalling assay in SH-SY5Y; format: cell-based, human; settings: G79 100 ng/ml and 20 μg/ml, BDNF 20 ng/ml; 30 min, 1 h, 2 h, 6 h
Source text: as §1, §2, §3

STAT-1 = experiment: Luminex signalling assay in SH-SY5Y; format: cell-based, human; settings: G79 100 ng/ml and 20 μg/ml, BDNF 20 ng/ml; 30 min, 1 h, 2 h, 6 h
Source text: as §1, §2, §3

[1] = tested on: TrkB and p75 on SH-SY5Y cells; experiment: Cytometry binding assay, competition BDNF/G79-FITC in SH-SY5Y; design: species or system human; settings: growing concentrations of BDNF
Experimental: In order to assess the binding of G79 to the TrkA (PC12 cells) and TrkB receptors (SH-SY5Y), we performed competitive binding assays by flow cytometry. In order to assess the binding competition between p75 and TrkA, PC12 cells expressing both TrkA and p75 receptors were cultivated in normal growth medium. After detaching cells by trypsin solution, 200,000 cells/well were added to tubes for the following incubations. One tube contains control untreated cells. In the other tubes, cells were pre-incubated for 45 minutes with different concentrations of NGF (0-10-20-50-100 ng/ml), that can directly bind both TrkA and p75 receptors, blocking the possible binding of G79 if it competes for the same receptors. Then, without washing the cells, G79 conjugated with FITC fluorescence (100 ng/ml) was added and so incubated the cells for 1 hour. Samples were read in a cytometer (FCAScan).
To detect the binding separately on both receptors, a prior incubation of cells (before NGF incubation) with blocking antibodies was made. The cells were preincubated for 1 hour with blocking antibody anti-p75 (1:100; Chemicon Int.), to detect the binding on TrkA, or blocking antibody anti-TrkA (1:200; AbCam) to detect the binding on p75. […] All the results are expressed as mean channel fluorescence (MCF), which is a measure of the cell surface fluorescence produced by G79-FITC binding.

in vitro = settings: rat (astrocytes)
[2] = Rattus norvegicus, RN 22, CuSO4 150 μg/ml, read-out: cell viability, as % relative to the no-stress control

Row | SMILES | cell viability of RN22 (in words) (RN22 cells) | viability at 0.01 µg/mL (RN22 cells; Rattus norvegicus, RN 22, 10 ng/ml, CuSO4 150 μg/ml, read-out: cell viability, as % relative to the no-stress control) [%] | best working concentration for RN22 cell viability (RN22 cells) [ng/mL] | protection of neuronal cells against MPTP (surviving cells, MTT) (SH-SY5Y cells) | ATF-2 phospho-activation (MFI) compared to unstimulated control (ATF-2) | HSP-27 phospho-activation (MFI) compared to unstimulated control (HSP-27) | JNK phospho-activation (MFI) compared to unstimulated control (JNK) | STAT-1 phospho-activation (MFI) compared to unstimulated control (STAT-1) | competition with BDNF for binding (MCF of G79-FITC) [1] | Papp (in vitro) [×10⁻⁶ cm/s] | viability at 0.05 µg/mL (RN22 cells; [2]) [%]
1 | CC(C)CN(CC(=O)N(CCCN1CCCC1=O)CC(N)=O)C(=O)CNCCc1ccccc1F [Compound G79, [N-(2-(2′-Fluorophenyl)ethyl)glycyl]-[N-(2-methylpropyl)glycyl]-N-[3-(2′-oxopyrrolidinyl)propyl]glycinamide] | increased cell viability at all tested concentrations | 98.1 | 10 | Prevent Neuronal Death; also recorded: significant protection of neuronal cells | significantly activated at 6 h after G79 treatment (20 μg/ml) | significantly activated at 1 h after G79 treatment (both at 20 μg/ml and 100 ng/ml) | significantly activated at 6 h after G79 treatment (both at 20 μg/ml and 100 ng/ml) | significantly activated at 6 h after G79 treatment (20 μg/ml) | competes with BDNF to one of its receptors | 4.1 | 
2 | CC(C)CN(CC(=O)N(CCc1ccc(S(N)(=O)=O)cc1)CC(N)=O)C(=O)CNCCc1ccccc1F [Compound G80, [N-(2-(2′-Fluorophenyl)ethyl)glycyl]-[N-(2-methylpropyl)glycyl]-N-[2-(4′-sulfamoylphenyl)ethyl]glycinamide] | increased cell viability at all tested concentrations |  | 50 | Prevent Neuronal Death |  |  |  |  |  | 2.8 | 99.9
3 | CC(C)CN(CC(=O)N(CCc1ccc(S(N)(=O)=O)cc1)CC(N)=O)C(=O)CNCCN1CCCC1 [Compound G81, [N-(2-(1-Pyrrolidinyl)ethyl)glycyl]-[N-(2-methylpropyl)glycyl]-N-[2-(4′-sulfamoylphenyl)ethyl]glycinamide] | increased cell viability at all tested concentrations |  | 50 | Prevent Neuronal Death |  |  |  |  |  | 2.1 | 102

From patent US10106577B2, “Agonists of neurotrophin receptors and their use as medicaments” (BIONURE FARMA, S.L., priority 2010, dated 2018)
